# Laboratory results: patent publication US8404655B2, “Inhibition of palmitoyl acyl transferase expression and/or activity for the regulation of antiproliferative factor activity” (University of Florida Research Foundation, Inc., priority 2007, dated 2013)
# Columns and labels:
# [1] = tested on: CKAP4/p63; assay: Immunofluorescent localization of CKAP4/p63 in HeLa cells; type: cell-based, human; conditions: APF 20 nM, 48 hours
# Experimental: Double stranded siRNA targeting ZDHHC2 was purchased from Dharmacon. HeLa cells or cells explanted from IC patients (IC cells) were trypsinized for 10 minutes at room temperature, centrifuged in growth medium (MEM with 10% heat inactivated FBS, 1% antibiotic/antimycotics solution, and 1% L glutamine), and the cell pellet was resuspended in serum-free medium at a density of 1×10^4 cells/ml. One mL of the cell suspension was then transferred to a sterile 2 mm cuvette with 20 μM siRNA, and electroporated at 160 V/500 μF capacitance using a BioRad Gene Pulser Xcell. HeLa cells were then plated onto a 96 well plate for the thymidine incorporation assay, and both HeLa and IC cells were plated onto an 8 well Lab-Tek tissue culture slide for confocal microscopy.
# For confocal microscopy, after 96 hours of incubation the medium was removed from the wells and cells were fixed using ethanol/acetone (1:1) for 15 min at room temperature, washed three times with 1×PBS, and incubated with mouse monoclonal anti-CKAP4/p63 antibodies (“anti-CLIMP-63”, clone G1/296; Alexis Biochemicals) in PBS, for 2 hrs at 37° C. Cells were then washed three times with PBS and further incubated with fluorescein isothiocyanate (FITC)-labeled secondary antibody diluted in PBS (goat anti-Mouse IgG 1:2000; Zymed) for 2 hrs at 37° C. […]
# [2] = tested on: HeLa cells; assay: 3H-thymidine incorporation (cell proliferation), HeLa cells; type: cell-based, human; conditions: APF 0.25-250 nM, 48 hours, serum starvation
# Experimental: Cell proliferation was measured by 3H-thymidine incorporation into ZDHHC2 siRNA-treated HeLa cells. Briefly, electroporated cells that received ZDHHC2 or control nonsense siRNA were plated into 96 well culture plates and incubated at 37° C. in a 5% CO2 atmosphere for 96 hours. Purified lyophilized synthetic APF was re-suspended in acetonitrile/distilled water (1:1), diluted in serum-free MEM (containing only glutamine and antibiotics/antimycotics), and applied to HeLa cells; cell controls received acetonitrile/distilled water diluted in serum-free MEM alone. Cells were then incubated for an additional 48 hours. The cell contents were harvested and methanol-fixed onto glass fiber filter paper, and the amount of radioactivity incorporated determined. Significant inhibition of ^3H-thymidine incorporation was defined as a mean decrease in counts per minute of greater than 2 standard deviations from the mean of control cells for each plate.
# siRNA—Double-stranded siRNA targeting ZDHHC2 (available from GenBank/EMBL/DDBJ under accession no. NM_016353) was purchased from Dharmacon (ON-TARGET plus). […]
# ^3H-Thymidine Incorporation—Cell proliferation was measured by 3H-thymidine incorporation into the DNA of HeLa or NB epithelial cells. […] The cell contents were harvested and methanol-fixed onto glass fiber filter paper, and the amount of radioactivity incorporated determined. […]
# [3] = tested on: vimentin; assay: Western blot of vimentin protein in HeLa cells; type: cell-based, human; conditions: APF 20 nM, 48 hours
# Experimental: Western Blot Analysis—Cells were lysed in ice-cold RIPA buffer containing protease inhibitors (Pierce), sonicated, and centrifuged for 15 minutes at 4° C. The supernatant protein concentration was measured using a Folin reagent-based protein assay kit (BioRad). Proteins were separated by electrophoresis using 4-12% NuPAGE Novex Bis-Tris polyacrylamide gels in MOPS running buffer (Invitrogen) and then transferred to nitrocellulose. Membranes were blocked for 2 hours at room temperature in TBST buffer (Tris-buffered saline, pH 7.4, with 0.1% Tween 20) containing 5% nonfat milk and incubated with specific antibodies against vimentin (diluted 1:2000; BD Pharmingen) or ZO-1 (diluted 1:125; Zymed) overnight at 4° C. The membranes were subsequently washed with TBST, incubated for 1 hour at room temperature in HRP-conjugated goat anti-mouse (diluted 1:4000, Santa Cruz Biotechnology) or goat anti-rabbit (diluted 1:10000; Pierce) secondary antibodies, and developed by enhanced chemiluminescence (Pierce). To assess equal loading of protein, the membranes were stripped and reprobed for β-actin (diluted 1:5000; Sigma). […] The protein bands of interest were quantified using ImageJ and the integrated signal densities normalized first to β-actin (the loading control) and subsequently expressed in terms of the fractional abundance relative to untreated control cells.
# [4] = tested on: E-cadherin mRNA; assay: Quantitative real-time PCR of E-cadherin mRNA in NB cells; type: cell-based, human; conditions: 2.5 nM APF alone or with nonsense siRNA, 48 hours
# Experimental: (§1) RNA was assessed by visualization of the 28S/18S ribosomal RNA ratio on a 1% agarose gel, and total RNA concentration determined by measuring the absorbance of each sample at 260 nm and 280 nm using a Gene Quant RNA/DNA Calculator (Pharmacia Biotech). Quantitative real-time PCR for gene expression was performed using Quantitect Primers (Qiagen), SYBR Green RT-PCR kit reagents (Qiagen), and a Roche System II Light-Cycler (software version 3.5). Samples were tested in triplicate runs, and specific mRNA levels quantified and compared to mRNA levels for β-actin using real-time PCR analysis software from Applied Biosystems.
# [5] = tested on: ZO-1 mRNA; assay: Quantitative real-time PCR of ZO-1 mRNA in NB cells; type: cell-based, human; conditions: 2.5 nM APF alone or with nonsense siRNA, 48 hours, normalized to β-actin
# Experimental: as §1
# [6] = tested on: normal primary bladder (NB) epithelial cells; assay: 3H-thymidine incorporation (cell proliferation), NB epithelial cells; type: cell-based, human; conditions: APF 0.25-250 nM, 48 hours, serum starvation
# Experimental: Normal primary bladder (NB) epithelial cells were isolated from patients as previously described (Conrads et al., 2006; Keay et al., 2000; Keay et al., 2004; Keay et al., 1996). Cells were propagated in DMEM-F12 (Media-Tech) with 10% heat inactivated FBS, 1% antibiotic/antimycotic solution, 1% L-glutamine, 0.25 U/ml insulin (Sigma), and 5 ng/ml human epidermal growth factor (R & D Systems) at 37° C. in a 5% CO2 atmosphere, and characterized by binding of AE-1/AE-3 pancytokeratin antibodies (Signet) as previously described (Keay et al., 1996; Keay et al., 2004).
# ^3H-Thymidine Incorporation—Cell proliferation was measured by 3H-thymidine incorporation into the DNA of HeLa or NB epithelial cells. […] Cells were then incubated at 37° C. in a 5% CO2 atmosphere for 48 hours. The cell contents were harvested and methanol-fixed onto glass fiber filter paper, and the amount of radioactivity incorporated determined. Significant inhibition of ^3H-thymidine incorporation was defined as a mean decrease in counts per minute of greater than 2 standard deviations from the mean of control cells for each plate.
# [7] = tested on: bladder epithelial cell; conditions: cited from earlier work
# [8] = tested on: vimentin mRNA; assay: Quantitative real-time PCR of vimentin mRNA in NB cells; type: cell-based, human; conditions: 2.5 nM APF alone or with nonsense siRNA, 48 hours, normalized to β-actin
# Experimental: as §1
substance,measurement,setting,value
"Sialoglycopeptide: sialic acid α-2,3 galactose β1-3-N-acetylgalactosamine α-O-linked to N-terminal threonine of Frizzled 8 nonapeptide (TVPAAVVVA) [APF, antiproliferative factor]",CKAP4 localization after APF treatment,[1],translocated to the nucleus and nucleolus
same,inhibition of HeLa cell proliferation (3H-thymidine incorporation),[2],concentration dependent manner
same,expression of vimentin following APF treatment,[3],reduced
same,change of E-cadherin mRNA levels,[4],dramatically increased
same,reduction of ZO-1 mRNA levels,[5],~93%
same,inhibition of NB cell proliferation (3H-thymidine incorporation),[6],concentration dependent manner
same,EC50 (potency of APF),[7],picomolar range
same,reduction of vimentin mRNA levels,[8],~97%
